In publication PMC9781268, “2-Arylpropionic Acid Pyrazolamides as Cannabinoid CB2 Receptor Inverse Agonists Endowed with Anti-Inflammatory Properties” (Pharmaceuticals, 2022):
In brackets after ≈: the same amount, converted by molar mass.

Key:
[1] = Parallel artificial membrane permeability assay, gastrointestinal (PAMPA-GI / PAMPA-GTI); details: for Classification / Pe Exp / Fa: Table S1, PAMPA-GTI; for Fa / PAMPA-GI Fa Exp: absorbed fraction; for Papp at 8 h, 0.5 mM: PAMPA; for PAMPA-GI Fa Exp: soybean L-α-phosphatidylcholine membrane
Procedure: A 10 mM solution of each compound (tests and controls) was prepared in DMSO. Then, in a 5 mL glass flask, 250 µL of the freshly prepared solution was homogenized with 4750 µL of PBS at pH 6.6 to a concentration of 10 mM. The solution was then filtered in a 0.45 µm PVDF filter and set aside. Then, 180 µL of a solution of phosphate-bufffered saline (PBS, pH 7.4):DMSO (95:5) was added to the wells of the receptor plate, and 5 µL of the soy L-α-phosphatidylcholine lipid solution (20 mg/mL in dodecane) was added to the wells of the donor plate. After 5 min, the donor plate received 180 µL of the reserved solution containing each compound. […] After this period, the donor plate was removed, and the contents of the recipient plate were transferred to a UV reading plate and read (SpectraMax 5, Molecular Devices) at the maximum wavelengths for each compound. The blank was prepared with 180 µL of PBS solution (pH 7.4):DMSO (95:5). The experiments were carried out in triplicate with two different analyses (n = 2) [37]. The optical density values obtained from the readings at each selected wavelength for each of the compounds were analyzed by comparison with the values of the controls. These values were used to determine the absorbed fraction (Fa %) using the JMP® program version 10.0.

[2] = Aqueous solubility (thermodynamic, UV spectroscopy); assay type: physicochemical; details: aqueous buffer, thermodynamic from solid, phosphate buffer pH 7.4, 37 °C
Procedure: The test was performed based on the absorbance obtained by ultraviolet spectroscopy. The scanning wavelength was determined according to the highest absorbance observed for each compound. Saturated aqueous solution of the analyzed compounds were stirred for 4 h at 37 °C, and then filtered through a 0.45 µm PVDF filter and transferred to a quartz cuvette (10 mm optical path) for reading. Solubility was determined by linear regression based on the equation of the line.

[3] = Distribution coefficient at pH 7.4 (shake-flask, octanol/phosphate buffer); assay type: physicochemical; details: 1-octanol/buffer pH 7.4; n-octanol/buffer partitioning at pH 7.4, UV method; read-out: Log D7.4
Procedure: The assay was performed based on the shake-flask method and the absorbance readings by ultraviolet spectroscopy at maximum absorbance wavelength. To a Falcon tube with a capacity of 15 mL, 5 mL of buffer solution at pH 7.4 and 5 mL of 1-octanol were added. Then, the tested compounds were added at defined concentrations of approximately 10–15 µM, and the mixtures were homogenized via vigorous manual shaking. Next, the Falcon tubes were stirred for 4 h at 37 °C, and the experiment was carried out in triplicate for each compound. Subsequently, each sample was placed in a separatory funnel, and the collected aqueous phase was filtered through a 0.45 µm PVDF filter and transferred to a quartz cuvette (10 mm optical path) for UV/Vis reading. The distribution coefficient of each compound at pH 7.4 was determined by linear regression using the straight-line equation [33].

[4] = Parallel artificial membrane permeability assay, blood-brain barrier (PAMPA-BBB); details: for PAMPA-BBB Score: porcine brain lipid membrane
Procedure: In a 5 mL glass vial, 1 mg of each compound (test or control) was dissolved in 1 mL of ethanol. Then, 500 μL of ethanol and 3.5 mL of PBS at pH 7.4 were added to this solution. […] After 5 min, the donor plate received 180 μL of each compound solution in triplicate. […] The experiments were performed in triplicate with two different analyses (n = 2).

plasma carboxylesterases = test: Plasma stability against enzymatic hydrolysis; assay type: in vitro ADME, Wistar rats; details: rat plasma, determined after 240 min
Procedure: For the evaluation of plasma stability against plasma carboxylesterases, a pool of plasma male Wistar rats weighing 300–360 g kept in the vivarium of the Laboratory of Biochemical and Molecular Pharmacology-UFRJ was used. Blood was collected with heparin and kept on ice. Then, the samples were centrifuged at 2000 rpm for 15 min at 20 °C, with subsequent removal of the plasma. The plasma was then diluted 80% (v/v) with phosphate buffer (PBS; pH = 7.4) at 37 °C. The experiments performed in this work were approved by the Ethics Committee on the Use of Animals in Scientific Experiments of the Health Sciences Center of the Federal University of Rio de Janeiro (Number 028/15). The biological matrix was incubated at 37 °C under agitation for 30, 60, 120, and 240 min. The degree of degradation was evaluated by HPLC-PDA with methyl 1,1′bisphenyl-4-carboxylate as an internal standard (PI), using an isocratic mobile phase of 70%:30% acetonitrile:water (0–15 min), an injection volume of 20 μL, a flow rate of 1 mL/min, and detection at 254 nm.

CB2 receptor = biological target: CB2 receptor; parameters: method as in PMID 22172309; details: cited from earlier work
CB1 receptors = test system: CB1 receptors; parameters: method as in PMID 22172309; details: cited from earlier work
[5] = test system: formalin-induced licking behavior in mice; test: Formalin-induced licking behavior; assay type: in vivo, Swiss Webster mice; details: morphine 2.5 mg/kg i.p., ASA 200 mg/kg p.o., LASSBio-2265 1, 3 and 10 mg/kg p.o., compared to vehicle
Procedure: This assay was performed as described by Hunskaar et al. and adapted by Gomes et al.. This model was characterized by a response that occurred in two phases. The first phase (acute neurogenic pain) occurred during the first 5 min after the intraplantar injection of formalin, and the second phase (inflammatory pain) occurred 15 to 30 min post-injection. Mice were pretreated with oral doses of LASSBio-2265 (11, at 1, 3 or 10 mg/kg, p.o.), morphine (2.5 mg/kg, i.p.), acetylsalicylic acid (ASA, 200 mg/kg, p.o.), or the vehicle (same amount of DMSO used to solubilize the substances + NaCl 0.9%) 60 min before the administration of formalin. […] Then, mice (n = 7 per group) received 20 μL of formalin (2.5% v/v) in the dorsal surface of the left hind paw. The time that the mice spent licking the injected paw was immediately recorded. […] The final volume administered to mice was 0.1 mL.

[6] = parameters: method as in ZHU et al., 2002; details: Table S1, PAMPA-GTI, drugs used as standard; ref ZHU et al., 2002; cited from earlier work
[7] = Table S2, PAMPA-BBB, drugs used as standard; cited from earlier work

Compound	Classification [1]	Pe Exp [1]	Fa [1]	solubility at 4 h [2]	logD [3]	Papp at 2.75 h, 0.2 mg/mL ([4]; PAMPA, pH 7.4)	Classification ([4]; Table S2, PAMPA-BBB)	Pe experimental ([4]; Table S2, PAMPA-BBB)	PAMPA-BBB Score [4]	Plasma Metabolization Rate (plasma carboxylesterases)	melting point	Papp at 8 h, 0.5 mM [1]	PAMPA-GI Fa Exp [1]	other results
O=c1ccc2ccccc2o1 [Coumarin, reference compound]	HIGH (high intestinal permeability: >70%)	22,65 10-6 cm/s	99,98%	–	–	–	–	–	–	–	–	–	–	–
Cc1c(NC(=O)C(C)c2ccc(CC(C)C)cc2)c(=O)n(-c2ccccc2)n1C (stereo not drawn) [Compound 7, N-(1,5-dimethyl-3-oxo-2-phenyl-2,3-dihydro-1H-pyrazol-4-yl)-2-(4-isobutylphenyl) propanamide]	HIGH (high intestinal permeability: >70%)	15,38 10-6 cm/s	99,71%	12.1 µM (≈ 4.75 µg/mL)	2.47	12.8 ×10⁻⁶ cm/s	CNS +	12,77 10-6 cm s-1	CNS+ (CNS+ (high predicted BBB permeability) Pe > 4.0 × 10^−6 cm/s)	56.13%	151.2 °C	15.4 ×10⁻⁶ cm/s	99.71%	–
Cc1c(NC(=O)Cc2ccc(-c3ccccc3)cc2)c(=O)n(-c2ccccc2)n1C [Compound 9, 2-([1,1’-biphenyl]-4-yl)-N-(1,5-dimethyl-3-oxo-2-phenyl-2,3-dihydro-1H-pyrazol-4-yl) acetamide]	HIGH (high intestinal permeability: >70%)	11,00 10-6 cm/s	98,47%	21.3 µM (≈ 8.47 µg/mL)	2.14	4.51 ×10⁻⁶ cm/s	CNS +	4,51 10-6 cm s-1	CNS+ (CNS+ (high predicted BBB permeability) Pe > 4.0 × 10^−6 cm/s)	24.56%	221.8 °C	11 ×10⁻⁶ cm/s	98.47%	–
Cc1c(NC(=O)C(C)c2ccc(-c3ccccc3)c(F)c2)c(=O)n(-c2ccccc2)n1C (stereo not drawn) [Compound 8, N-(1,5-dimethyl-3-oxo-2-phenyl-2,3-dihydro-1H-pyrazol-4-yl)-2-(2-fluoro-[1,1^′-biphenyl]-4-ylil) propanamide]	HIGH (high intestinal permeability: >70%)	9,69 10-6 cm/s	97,49%	59.1 µM (≈ 25.4 µg/mL)	1.94	17.2 ×10⁻⁶ cm/s	CNS +	17,25 10-6 cm s-1	CNS+ (CNS+ (high predicted BBB permeability) Pe > 4.0 × 10^−6 cm/s)	18.66%	214.8 °C	9.69 ×10⁻⁶ cm/s	97.49%	–
Cc1c(N(C)C(=O)C(C)c2ccc(CC(C)C)cc2)c(=O)n(-c2ccccc2)n1C (stereo not drawn) [Compound 10, N-(1,5-dimethyl-3-oxo-2-phenyl-2,3-dihydro-1H-pyrazol-4-yl)-2-(4-isobutylphenyl)-N-methylpropanamide]	HIGH (high intestinal permeability: >70%)	9,15 10-6 cm/s	96,91%	47.7 µM (≈ 19.3 µg/mL)	2.43	12.7 ×10⁻⁶ cm/s	CNS +	12,68 10-6 cm s-1	CNS+ (CNS+ (high predicted BBB permeability) Pe > 4.0 × 10^−6 cm/s)	32.50%	–	2.51 ×10⁻⁶ cm/s	–	–
C[C@]12C=CC(=O)C=C1CC[C@@H]1[C@@H]2C(=O)C[C@@]2(C)[C@H]1CC[C@]2(O)C(=O)CO [Prednisone, reference compound]	–	3,09 10-6 cm/s	–	–	–	–	–	–	–	–	–	–	–	–
CCCCC/C=C\C/C=C\C/C=C\C/C=C\CCCC(=O)Nc1c(C)n(C)n(-c2ccccc2)c1=O [Compound 5]	–	–	–	–	–	–	–	–	–	–	–	–	–	Ki (CB2 receptor; CB2 receptor): 5.4 µM; Affinity for CB2 receptors (CB2 receptor): micromolar affinity; Affinity for CB1 receptors (CB1 receptors): micromolar affinity
CC(=O)Oc1ccccc1C(=O)O [acetylsalicylic acid, reference compound]	AVERAGE (medium intestinal permeability: 30–69%)	1,69 10-6 cm/s	47,36%	–	–	–	–	–	–	–	–	–	–	Analgesia in the first phase of the formalin test [5]: only morphine (2.5 mg/kg) promoted significant analgesia; Pe Lit [6]: 3,8 10-6cm/s
CC(C)NCC(O)COc1ccc(CC(N)=O)cc1 (stereo not drawn) [Atenolol, reference compound]	–	–	–	–	–	–	CNS -	–	–	–	–	–	–	Pe experimental ([4]; PAMPA, 2.75 h, 0.2 mg/mL, pH 7.4): 0,46 10-6 cm s-1; Pe Lit [6]: 0,1 10-6cm/s; Pe literatura [7]: 0,8 10-6 cm s-1
CNC(=C[N+](=O)[O-])NCCSCc1ccc(CN(C)C)o1 [Ranitidine, reference compound]	LOW (low intestinal permeability: <29%)	0,38 10-6 cm/s	13,48%	–	–	–	–	–	–	–	–	–	–	–
